ChEMBL document CHEMBL3046819, “Synthesis and antimicrobial activity of new pyridine derivatives-I” (2011)

How the values were obtained:
Format in all cases: functional
Conditions in all cases: read-out: IZ
[1] = system: Bacillus subtilis; test: Antibacterial activity against Bacillus subtilis ATCC 6633 at 100 ug/ml by cup-plate method
[2] = system: Staphylococcus aureus; test: Antibacterial activity against Staphylococcus aureus ATCC 9144 at 100 ug/ml by cup-plate method
[3] = system: Escherichia coli; test: Antibacterial activity against Escherichia coli ATCC 25922 at 200 ug/ml by cup-plate method
[4] = system: Candida albicans; test: Antifungal activity against Candida albicans ATCC 10231 at 100 ug/ml by cup-plate method
[5] = system: Pseudomonas aeruginosa; test: Antibacterial activity against Pseudomonas aeruginosa ATCC 9027 at 200 ug/ml by cup-plate method
[6] = system: Staphylococcus aureus; test: Antibacterial activity against Staphylococcus aureus ATCC 9144 at 200 ug/ml by cup-plate method
[7] = system: Pseudomonas aeruginosa; test: Antibacterial activity against Pseudomonas aeruginosa ATCC 9027 at 100 ug/ml by cup-plate method
[8] = system: Candida albicans; test: Antifungal activity against Candida albicans ATCC 10231 at 200 ug/ml by cup-plate method
[9] = system: Escherichia coli; test: Antibacterial activity against Escherichia coli ATCC 25922 at 100 ug/ml by cup-plate method
[10] = system: Bacillus subtilis; test: Antibacterial activity against Bacillus subtilis ATCC 6633 at 200 ug/ml by cup-plate method

| SMILES | zone of inhibition at 100 µg/mL [1] [mm] | zone of inhibition at 100 µg/mL [2] [mm] | zone of inhibition at 200 µg/mL [3] [mm] | zone of inhibition at 100 µg/mL [4] [mm] | zone of inhibition at 200 µg/mL [5] [mm] | zone of inhibition at 200 µg/mL [6] [mm] | zone of inhibition at 100 µg/mL [7] [mm] | zone of inhibition at 200 µg/mL [8] [mm] | zone of inhibition at 100 µg/mL [9] [mm] | zone of inhibition at 200 µg/mL [10] [mm] |
| --- | --- | --- | --- | --- | --- | --- | --- | --- | --- | --- |
| Cc1cccc2sc(Nc3ncccc3C(=O)N3CCN(CCO)CC3)nc12 | 7 | 4 | 7 | 0 | 7 | 5 | 6 | 0 | 3 | 10 |
| Cc1ccc2sc(Nc3ncccc3C(=O)N3CCNC(Cl)C3Cl)nc2c1 (stereo not given) | 7 | 8 | 7 | 2 | 8 | 10 | 6 | 3 | 5 | 7 |
| Cc1cccc2sc(Nc3ncccc3C(=O)N3CCNC(Cl)C3Cl)nc12 (stereo not given) | 4 | 4 | 10 | 0 | 7 | 6 | 6 | 0 | 8 | 4 |
| O=C(c1cccnc1Nc1nc2ccccc2s1)N1CCNC(Cl)C1Cl (stereo not given) | 6 | 5 | 8 | 3 | 5 | 7 | 4 | 5 | 7 | 7 |
| O=C(c1cccnc1Nc1nc2cc(Cl)ccc2s1)N1CCN(CCO)CC1 | 5 | 0 | 5 | 3 | 3 | 0 | 0 | 4 | 5 | 5 |
| Cc1ccc2nc(Nc3ncccc3C(=O)N3CCN(CCO)CC3)sc2c1 | 0 | 0 | 6 | 2 | 0 | 3 | 0 | 5 | 0 | 0 |
